#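 In this assay, cells in 96-well plates receive the compound at five concentrations for 48 hours. Endpoints are linearly interpolated between the surrounding concentrations. GI50 marks 50% less growth. TGI: concentration producing complete growth inhibition.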
# Legend:
# Experiment in all cases: growth of human tumour cells (NCI), 48 h
# [1] = test system: RPMI-8226 leukemia
# [2] = test system: HS 578T breast
# [3] = test system: DU-145 prostate
# [4] = test system: A549 NSCLC
# [5] = test system: COLO 205 colon
# [6] = test system: NCI-H460 lung
# [7] = test system: SW-620 colon
# [8] = test system: IGROV1 ovarian
# [9] = test system: EKVX NSCLC
# [10] = test system: SK-MEL-2 melanoma
# [11] = test system: HOP-92 NSCLC
# [12] = test system: NCI-H23 lung
# [13] = test system: SF-539 CNS
# [14] = test system: CCRF-CEM leukemia
# [15] = test system: SK-MEL-28 melanoma
# [16] = test system: CAKI-1 renal
# [17] = test system: TK-10 renal
# [18] = test system: T-47D breast
# [19] = test system: SF-268 CNS
# [20] = test system: HOP-62 NSCLC
# [21] = test system: HCC-2998 colon
# [22] = test system: SNB-75 CNS
# [23] = test system: HCT-15 colon
# [24] = test system: M14 melanoma
# [25] = test system: LOX IMVI melanoma
# [26] = test system: 786-0 renal
# [27] = test system: A498 renal
# [28] = test system: MDA-MB-231 breast
# [29] = test system: MOLT-4 leukemia
# [30] = test system: OVCAR-5 ovarian
# [31] = test system: NCI-H522 lung
# [32] = test system: SNB-19 CNS
# [33] = test system: BT-549 breast
# [34] = test system: OVCAR-3 ovarian
# [35] = test system: UO-31 renal
# [36] = test system: HCT-116 colon
# [37] = test system: NCI/ADR-RES ovarian
# [38] = test system: K-562 leukemia
# [39] = test system: HT29 colon
# [40] = test system: SN12C renal
# [41] = test system: OVCAR-8 ovarian
# [42] = test system: SK-OV-3 ovarian
# [43] = test system: UACC-62 melanoma
# [44] = test system: MCF7 breast
# [45] = test system: PC-3 prostate
# [46] = test system: U251 CNS
# [47] = test system: ACHN renal
# [48] = test system: MALME-3M melanoma
# [49] = test system: UACC-257 melanoma
# [50] = test system: OVCAR-4 ovarian
# [51] = test system: RXF 393 renal
# [52] = test system: SF-295 CNS
# [53] = test system: NCI-H226 lung
# [54] = test system: KM12 colon
# [55] = test system: SK-MEL-5 melanoma
# [56] = test system: MDA-MB-435
# [57] = test system: HL-60(TB) leukemia
smiles,measurement,setting,value
CC(C)(C)NC(=O)[C@H]1C[C@H]2CCCC[C@H]2CN1C[C@@H](O)[C@H](Cc1ccccc1)NC(=O)[C@H](CC(N)=O)NC(=O)c1ccc2ccccc2n1,GI50,[1],3.5 µM
same,TGI,[1],14.8 µM
same,GI50,[2],16.4 µM
same,TGI,[2],60.2 µM
same,GI50,[3],1.78 µM
same,TGI,[3],6.95 µM
same,GI50,[4],13.2 µM
same,TGI,[4],31 µM
same,GI50,[5],10.5 µM
same,TGI,[5],29.8 µM
same,GI50,[6],12.7 µM
same,TGI,[6],> 51.4 µM
same,GI50,[7],20.3 µM
same,TGI,[7],48.8 µM
same,GI50,[8],15.4 µM
same,TGI,[8],38.8 µM
same,GI50,[9],3.57 µM
same,TGI,[9],> 59.9 µM
same,GI50,[10],22.7 µM
same,TGI,[10],> 65.7 µM
same,GI50,[11],4.17 µM
same,TGI,[11],20 µM
same,GI50,[12],16 µM
same,TGI,[12],33.2 µM
same,GI50,[13],2.93 µM
same,TGI,[13],23.9 µM
same,GI50,[14],9.31 µM
same,TGI,[14],28 µM
same,GI50,[15],16.9 µM
same,TGI,[15],33.1 µM
same,GI50,[16],16.4 µM
same,TGI,[16],33.1 µM
same,GI50,[17],15.4 µM
same,TGI,[17],36.6 µM
same,GI50,[18],13.8 µM
same,TGI,[18],40.9 µM
same,GI50,[19],13 µM
same,TGI,[19],30.1 µM
same,GI50,[20],15.2 µM
same,TGI,[20],30.7 µM
same,GI50,[21],13.4 µM
same,TGI,[21],26.8 µM
same,GI50,[22],12.5 µM
same,TGI,[22],28.4 µM
same,GI50,[23],14 µM
same,TGI,[23],33.8 µM
same,GI50,[24],13.3 µM
same,TGI,[24],28 µM
same,GI50,[25],14.6 µM
same,TGI,[25],32.1 µM
same,GI50,[26],13.8 µM
same,TGI,[26],31.1 µM
same,GI50,[27],15.7 µM
same,TGI,[27],32.1 µM
same,GI50,[28],13 µM
same,TGI,[28],26.7 µM
same,GI50,[29],1.9 µM
same,TGI,[29],21.8 µM
same,GI50,[30],16.7 µM
same,TGI,[30],30.5 µM
same,GI50,[31],15.6 µM
same,TGI,[31],33.8 µM
same,GI50,[32],7.97 µM
same,TGI,[32],23 µM
same,GI50,[33],11.2 µM
same,TGI,[33],> 66.1 µM
same,GI50,[34],13.5 µM
same,TGI,[34],33.5 µM
same,GI50,[35],15.5 µM
same,TGI,[35],29.9 µM
same,GI50,[36],17 µM
same,TGI,[36],> 47.1 µM
same,GI50,[37],19.4 µM
same,TGI,[37],44.3 µM
same,GI50,[38],8.51 µM
same,TGI,[38],24.4 µM
same,GI50,[39],9.38 µM
same,TGI,[39],28.2 µM
same,GI50,[40],13.9 µM
same,TGI,[40],27.8 µM
same,GI50,[41],23 µM
same,TGI,[41],62.4 µM
same,GI50,[42],18.9 µM
same,TGI,[42],42.9 µM
same,GI50,[43],13.6 µM
same,TGI,[43],27.7 µM
same,GI50,[44],19.1 µM
same,TGI,[44],43.5 µM
same,GI50,[45],7.17 µM
same,TGI,[45],26.8 µM
same,GI50,[46],11.9 µM
same,TGI,[46],24.4 µM
same,GI50,[47],16 µM
same,TGI,[47],29.5 µM
same,GI50,[48],17.7 µM
same,TGI,[48],37.8 µM
same,GI50,[49],13.4 µM
same,TGI,[49],28.2 µM
same,GI50,[50],14 µM
same,TGI,[50],31.5 µM
same,GI50,[51],12.5 µM
same,TGI,[51],32.1 µM
same,GI50,[52],18.3 µM
same,TGI,[52],39.3 µM
same,GI50,[53],15.4 µM
same,TGI,[53],32.8 µM
same,GI50,[54],14 µM
same,TGI,[54],34.8 µM
same,GI50,[55],14.5 µM
same,TGI,[55],30 µM
same,GI50,[56],11.9 µM
same,TGI,[56],32.8 µM
same,GI50,[57],4.22 µM
same,TGI,[57],26.3 µM

# — PubChem BioAssay (NCI)
